Reference: patent publication US8278293B2, “Diazo bicyclic Smac mimetics and the uses thereof” (The Regents of the University of Michigan, priority 2007, dated 2012)
Like-named read-outs stand apart in the source and are kept apart here. Square brackets hold non-standard residues; d marks the D form. Peptide text beside a SMILES is read from it. * marks the point of attachment. 5FAM = O=C1OC2(c3ccc(O)cc3Oc3cc(O)ccc32)c2ccc(C(=O)*)cc21; Abu = CC[C@H](N)C(=O)O

What was measured:
[1] = biological target: T1, cIAP1 BIR3 domain (Homo sapiens, UniProt Q13490); test: FP competitive binding assay to cIAP1 BIR3; details: FP tracer; read-out: affinity of tracer for cIAP1
T1 construct: cIAP1 BIR3 domain (residues 253-363); His-tag

[2] = biological target: T2, cIAP2 BIR3 domain (Homo sapiens, UniProt Q13489); test: FP competitive binding assay to cIAP2 BIR3; details: FP tracer; read-out: affinity of tracer for cIAP2
T2 construct: cIAP2 BIR3 domain (residues 238-349); His-tag

[3] = biological target: T3, ML-IAP BIR3 domain (Homo sapiens, UniProt Q96CA5); test: FP competitive binding assay to ML-IAP BIR3; details: FP tracer; read-out: affinity of tracer for ML-IAP
T3 construct: ML-IAP BIR3 domain (residues 63-179), fused to a His-tag; His-tag
T3 sequence (Q96CA5 63-179): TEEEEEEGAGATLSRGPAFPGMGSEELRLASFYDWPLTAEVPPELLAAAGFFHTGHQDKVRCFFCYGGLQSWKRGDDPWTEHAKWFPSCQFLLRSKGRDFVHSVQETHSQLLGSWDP
Procedure: In order to test the binding ability of conformationally constrained Smac mimetics to other IAP proteins (ML-IAP, cIAP1, and cIAP2) binding assay conditions were developed and optimized. The recombinant cIAP1 BIR3 domain (residues 253-363), cIAP2 BIR3 domain (residues 238-349), and ML-IAP BIR3 domain (residues 63-179), fused to a His-tag, were used in the binding assays. Competitive binding assays for other IAP proteins were performed similarly as that described for XIAP BIR3. […] The following protein concentration and tracer were used in the competitive assay: 10 nM cIAP1 and 2 nM SM5F, 25 nM cIAP2 and 2 nM SM5F, 300 nM ML-IAP and 5 nM SM5F
The competitive binding curves of SM-406 and SM-428 to BIR^3 domains of four members of IAP proteins were determined using a fluorescence-polarization-based binding assay. The IAP proteins tested include: (A) XIAP; (B) cIAP1; (C) cIAP2; (D) ML-IAP.

[4] = tested on: MDA-MB-231 human breast cancer cell line; test: Cell growth inhibition, WST-8 assay, MDA-MB-231; type: cell-based; details: for IC50: Homo sapiens, MDA-MB-231, 96 h; for cellular activity in MDA-MB-231 compared with SM-122: relative to SM-122
Procedure: (§1) The effect of the compounds of the present invention on the growth of various cancer cell lines was tested. Cells were seeded in 96-well flat bottom cell culture plates at a density of 3000 cells/well with a tested compound and incubated at 37° C. in an atmosphere of 95% air and 5% CO2 for 4 days. […] Dojindo Molecular Technologies, Inc., Gaithersburg, Md.). […] The absorbance of the samples was measured at 450 nm using a ULTRA Tecan Reader (Molecular Device). […] The ability of SM-406 to inhibit cell growth as a single agent was tested in the MDA-MB-231 breast cancer cell line, SK-OV-3 and OVCAR-4 ovarian cancer cell lines and SK-MeI-2 melanoma cancer cell line. Cells were treated for 4 days. Cell growth was determined using a WST-based assay.

[5] = tested on: SK-OV-3 ovarian cancer cell line; test: Cell growth inhibition, WST-8 assay, SK-OV-3; type: cell-based; details: for IC50: Homo sapiens, SK-OV-3, 96 h; for cellular activity in SK-OV-3 compared with SM-122: relative to SM-122
Procedure: as §1

[6] = tested on: ovarian cancer SK-OV-3 cell line; test: Induction of cell death, trypan blue exclusion, SK-OV-3; type: cell-based
Procedure: (§2) The ability of YP-337 to induce cell death was tested in the breast cancer MDA-MB-231 and ovarian cancer SK-OV-3 cell lines (Table 4). Cells were treated with YP-337 for 48 hours and cell viability was determined using the trypan blue exclusion assay.

[7] = tested on: breast cancer MDA-MB-231 cell line; test: Induction of cell death, trypan blue exclusion, MDA-MB-231; type: cell-based
Procedure: as §2

[8] = tested on: MDA-MB-231 breast cancer xenograft; test: MDA-MB-231 breast cancer xenograft model in nude mice; type: in vivo
Procedure: The ability of SM-406 (AT-406) to act as anti-tumor agent was tested in the MDA-MB-231 breast cancer xenograft (nude mice) model. SM-406 (AT-406) was administered qd×5 per week for two weeks. […] Body weight loss was less in weekly dosing (<5%) compared to the other dosing schedules.

[9] = tested on: SK-Mel-2 melanoma cancer cell line; test: Cell growth inhibition, WST-based assay, SK-Mel-2; details: Homo sapiens, SK-MEL-2, 96 h; single agent, 4 days, FIG. 8
Procedure: (§3) The ability of SM-406 to inhibit cell growth as a single agent was tested in the MDA-MB-231 breast cancer cell line, SK-OV-3 and OVCAR-4 ovarian cancer cell lines and SK-MeI-2 melanoma cancer cell line. Cells were treated for 4 days. Cell growth was determined using a WST-based assay.

[10] = tested on: SR leukemia cell line; test: Cell growth inhibition, WST-based assay, SR; details: 96 h; single agent, 4 days, FIG. 9
Procedure: (§4) The ability of SM-406 to inhibit cell growth as a single agent was tested in the HL-60 and SR leukemia cell lines. Cells were treated for 4 days. Cell growth was determined using a WST-based assay.

[11] = tested on: HL-60 leukemia cell line; test: Cell growth inhibition, WST-based assay, HL-60; details: Homo sapiens, HL-60, 96 h; single agent, 4 days, FIG. 9
Procedure: as §4

[12] = biological target: T4, XIAP BIR3 (Homo sapiens, UniProt P98170); test: Fluorescence polarization (FP) based competitive binding assay to XIAP BIR3; set-up: human XIAP (residues 241-356) fused to His-tag; His-tag; details: for binding affinity to XIAP BIR3 compared with SM-122: relative to carbocyclic analog SM-122
Target sequence in this assay (P98170 241-356): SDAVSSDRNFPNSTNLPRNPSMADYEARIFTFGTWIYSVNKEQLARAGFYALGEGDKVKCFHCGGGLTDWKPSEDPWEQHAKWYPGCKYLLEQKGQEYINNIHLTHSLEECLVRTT

[13] = tested on: OVCAR-4 ovarian cancer cell line; test: Cell growth inhibition, WST-based assay, OVCAR-4; details: Homo sapiens, OVCAR-4, 96 h; single agent, 4 days, FIG. 8
Procedure: as §3

[14] = biological target: T4, XIAP BIR3; details: background statement; cited from earlier work
Target sequence in this assay (P98170 241-356 limits assumed): as the sequence (P98170 241-356) above

T2 sequence (Q13489 238-349): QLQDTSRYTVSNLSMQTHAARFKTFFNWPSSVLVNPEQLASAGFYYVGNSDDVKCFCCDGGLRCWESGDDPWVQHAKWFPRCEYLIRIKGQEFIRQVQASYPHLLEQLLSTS
T1 sequence (Q13490 253-363): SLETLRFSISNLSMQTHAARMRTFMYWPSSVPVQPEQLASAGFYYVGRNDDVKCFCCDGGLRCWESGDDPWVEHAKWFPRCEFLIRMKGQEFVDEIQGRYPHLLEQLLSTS

`CC[C@H](N)C(=O)N[C@@H](CCCNC(=N)N)C(=O)N1CCC[C@H]1C(=O)N[C@@H](Cc1ccccc1)C(=O)N[C@@H](CCCCNC(=O)c1ccc2c(c1)C(=O)OC21c2ccc(O)cc2Oc2cc(O)ccc21)C(N)=O` [SM5F, AbuRPF-K-(5-Fam)-NH2] (H-[Abu]RPFK(5FAM)-NH2; N-terminus assumed) gave a Kd [1] of 4.1 nM, a Kd [2] of 6.6 nM and a Kd [3] of 160 nM.

For `CN[C@@H](C)C(=O)N[C@H]1CN(C(=O)Cc2ccccc2)CC[C@H]2CC[C@@H](C(=O)NC(c3ccccc3)c3ccccc3)N2C1=O` [SM-337], the IC50 ([4]; read-out: MDA-MB-231 IC50 (μM)) was under 1 µM, the “cellular activity in MDA-MB-231 compared with SM-122” value [4] was “equal to or better than that of SM-122” and the IC50 ([5]; read-out: SK-OV-3 IC50 (μM)) was under 1 µM. For the same molecule, the “cellular activity in SK-OV-3 compared with SM-122” value [5] was “equal to or better than that of SM-122”, the “Approximate % of dead cells after 48 h, SK-OV-3” value (shortened to “Approximate % … SK-OV-3”) ([6]; 0.1 nM) was about 20% and the “Approximate % … SK-OV-3” value ([6]; 1 nM) was about 40%. For the same molecule, the “Approximate % … SK-OV-3” value ([6]; 10 nM) was about 65%, the “Approximate % … SK-OV-3” value ([6]; 100 nM) was about 75% and the “Approximate % of dead cells after 48 h, MDA-MB-231” value (“Approximate % … MDA-MB-231” below) ([7]; 0.1 nM) was about 10%. The “Approximate % … MDA-MB-231” value ([7]; 1 nM) was about 35%, the “Approximate % … MDA-MB-231” value ([7]; 10 nM) was about 60% and the “Approximate % … MDA-MB-231” value ([7]; 100 nM) was about 75%.

In the case of `CN[C@@H](C)C(=O)N[C@H]1CN(C(=O)CC(C)C)CC[C@H]2CC[C@@H](C(=O)NC(c3ccccc3)c3ccccc3)N2C1=O` [SM-406], the body weight loss ([8]; 200 mg/kg, weekly dosing) is reported as under 5%, the dose-dependent weight loss ([8]; 100 and 200 mg/kg, qd×5 per week for two weeks) is reported as “up to 11%” and the IC50 [9] is reported as 6640 nM. For the same molecule, the IC50 [10] was 7290 nM, the IC50 [11] was 58 nM and the IC50 ([4]; 4 days, WST-8, read-out: MDA-MB-231 IC50) was under 1 µM. The IC50 ([4]; single agent, 4 days, FIG. 8, read-out: IC50, cell growth, MDA-MB-231) was 0.082 µM, the IC50 ([5]; 4 days, WST-8, read-out: SK-OV-3 IC50) was under 1 µM and the IC50 ([5]; single agent, 4 days, FIG. 8, read-out: IC50, cell growth, SK-OV-3) was 0.238 µM. The IC50 ([12]; FP binding, XIAP BIR3 30 nM, SM5F 5 nM) was under 100 nM and the IC50 [13] was 926 nM.

In the case of `CN[C@@H](C)C(=O)N[C@H]1CN(C)CC[C@H]2CC[C@@H](C(=O)NC(c3ccccc3)c3ccccc3)N2C1=O` [YP-245P3], the IC50 ([4]; read-out: MDA-MB-231 IC50 (μM)) is reported as over 1 µM, the “cellular activity in MDA-MB-231 compared with SM-122” value [4] is reported as “less than that of SM-122” and the “cellular activity in SK-OV-3 compared with SM-122” value [5] is reported as “less than that of SM-122”. The “binding affinity to XIAP BIR3 compared with SM-122” value [12] was “less than that of SM-122”.

For `CN[C@@H](C)C(=O)N[C@H]1CN(Cc2ccccc2)CC[C@H]2CC[C@@H](C(=O)NC(c3ccccc3)c3ccccc3)N2C1=O` [YP-246P], the IC50 ([4]; read-out: MDA-MB-231 IC50 (μM)) was over 1 µM, the “cellular activity in MDA-MB-231 compared with SM-122” value [4] was “less than that of SM-122” and the “cellular activity in SK-OV-3 compared with SM-122” value [5] was “less than that of SM-122”. For the same molecule, the “binding affinity to XIAP BIR3 compared with SM-122” value [12] was “less than that of SM-122”.

B1: mature Smac protein: mature Smac/DIABLO polypeptide, endogenous inhibitor of XIAP (protein, UniProt Q9NR28 22-239, looked up)
Diablo IAP-binding …: LCVPVVANFKKRCFSELIRPWHKTVTIGFGVTLCAVPIAQKSEPHSLSSEALMRRAVSLVTDSTSTFLSQTTYALIEAITEYTKAVYTLTSLYRQYTSLLGKMNSEEEDEVWQVIIGARAEMTSKHQEYLKLETTWMTAVGLSEMAAEAAYQTGADQASITARNHIQLVKLQVEEVHQLSRKAETKLAEAQIEELRQKTQEEGEERAESEQEAYLRED
In the case of B1, the Kd [14] is given as 420 nM.
